Where two headings read alike, the source gives them in different places.
What was measured:
[1] = tested on: patients with treatment-resistant depression and/or treatment-resistant anxiety (TRD/TRA); assay: Study ZPS-603 Cohort 4: mood ratings (HAMA, FQ, MADRS), open label multiple ascending dose; type: in vivo, human; details: injected drug in earlier treatment (FIG. 7)
Experimental: The objective of Cohort 4 was to evaluate efficacy, safety, PK and PD of an extended release ketamine oral formulation in patients with treatment-resistant depression and/or treatment-resistant anxiety (TRD/TRA). […] The design was an open label multiple ascending dose study. The initial dose was 60 mg, and could be escalated by an additional 60 mg 12 hourly, based on assessment of mood symptoms, to a maximum dose of 240 mg, with a total of 7 doses given 12 hourly between 0 and 72 hours. Endpoints included safety, tolerability, ketamine and norketamine PK, and PD (mood ratings including the Fear Questionnaire (FQ; Marks 1979), HAMA and MADRS, and dissociative symptom rating scale scores).

TRD patients = details: Singh et al. 2016, cited from earlier work
[2] = injected by any route of administration (e.g. Loo 2016); cited from earlier work

For `CNC1(c2ccccc2Cl)CCCCC1=O` (stereo not shown) [IV ketamine, 2-(2-chlorophenyl)-2-(methylamino)cyclohexan-1-one], the “onset of improvement of anxiety symptoms” value [1] is given as 1 to 2 h, the TRD patients remitted (TRD patients; 0.5 mg/kg IV thrice weekly) is given as 23.1% and the TRD patients remitted (TRD patients; 0.5 mg/kg IV twice weekly for 15 days) is given as 37.5%. For the same compound, the “duration of marked dissociative symptoms after dosing” value [2] was “up to 60 minutes”.

— patent US12611386B2, “Extended release pharmaceutical formulation” (Douglas Pharmaceuticals Ltd., priority 2020, dated 2026)
